Source: patent US5798092A, “Derivatized DTPA complexes pharmaceutical agents containing these compounds, their use, and processes for their production” (Schering Aktiengesellschaft, priority 1989, dated 1998)

Legend:
[1] = T1 relaxation (relaxivity) in water; type: physicochemical
Description: (§1) T1 relaxation (1/mmol·sec) is
(§2) The T1 relaxation (1/mmol·sec) is
(§3) The T1 relaxation (1/mmol·sec) amounts to
(§4) The T1 relaxation (1mmol·sec) is […]

rats [2] = assay: in vivo NMR imaging in rat with Brown Pearce tumor (spin echo, 2 tesla); set-up: species or system rat (male hairless, Lew/Mol); conditions: 0.06 mmol/kg i.v.
Description: Spin echo scans were made with the NMR tomograph (CSI 2 T) at 2 tesla (TR time of 400 ms and TE time of 20 ms).
The contrast medium was administrated intravenously into a caudal vein of a male hairless rat (Lew/Mol) weighing 190 g, in a dose of 0.06 mmol/kg.

[3] = T1 relaxation (relaxivity) in plasma; type: physicochemical
Description: as §1, §2, §3, §4

rats [4] = assay: in vivo MRI in rats, T1-weighted spin echo, liver/stomach/osteogenic sarcoma; set-up: species or system rat (female, Lew/Mol); conditions: 0.1 mmol Gd/kg i.v.; for enhancement of the stomach: ranking among the three compounds
Description: The test animals were female rats of the strain Lew/Mol weighing 160-180 g. Prior to imaging, the animals were anesthetized ("Rompun"+"Ketavet") and provided with a catheter in the caudel vein to administer the contrast medium. Imaging took place in an MRI experimental device by General Electric (field strength 2 tesla). First of all, the images (7, 9, 11) were made without contrast medium with a T1 -weighted spin echo sequence (TR=400 msec, TE=20 msec, axial section plane, layer thickness 3 mm). The liver appears in each case with the normal signal intensity; the stomach is darker in tendency than the liver. […] This is due to feed residues, the feed containing manganese in relatively high concentrations (at the time of the test, the animals had been fasting for 6 hours). Animal 3 had been implanted with an osteogenic sarcoma three weeks previously; this sarcoma was of equal contrast in the blank image and could not be defined. The administration of contrast medium took place via the venous catheter with a dose of 0.1 mmol Gd/kg (concentration of the solutions 0.05 mmol Gd/ml in 0.9% NaCl) for all 3 compounds.

rats [5] = conditions: at this point in time after administration; no own data shown; cited from earlier work

COc1ccc(CC(CN(CCN(CC(=O)[O-])CC(=O)[O-])CC(=O)[O-])N(CC(=O)[O-])CC(=O)[O-])cc1.[Gd+3].[Na+].[Na+] (centres unmarked) [Example 1(c) disodium salt, Gadolinium Complex of 3,6,9-Triaza-3,6,9-tris-(carboxymethyl)-4-(4-methoxybenzyl)undecanedioic Acid]
T1 relaxation [1]: 4.54 ± 0.13 mmol⁻¹ s⁻¹ | increase in contrast in the stomach (rats [2]; 45 minutes after injection): strong increase in contrast | contrasting of the intestine (rats [2]; 60 minutes after injection): contrasting of the intestine can likewise be observed | contrasting of the renal pelvis (rats [2]; 60 minutes after injection): striking | visualization of the stomach (rats [2]; 60 minutes after injection): good visualization | visualization of the urinary bladder (rats [2]; 60 minutes after injection): good visualization | visualization of the tumor (rats [2]; 60 minutes after injection, Brown Pearce tumor in the thigh): good visualization | contrasting of the renal pelvis (rats [2]; 65 minutes after injection, somewhat different layer): even more improved | contrast enhancement in the zone of the liver (rats [2]; 180 minutes after injection, axial scan): contrast enhancement is likewise clearly recognizable | contrast enhancement in the urinary bladder (rats [2]; one minute after administration): first enhancement is already apparent | T1 relaxation [3]: 6.89 ± 0.17 mmol⁻¹ s⁻¹

CCOc1ccc(CC(CN(CCN(CC(=O)[O-])CC(=O)[O-])CC(=O)[O-])N(CC(=O)[O-])CC(=O)[O-])cc1.[Gd+3].[Na+].[Na+] (centres unmarked) [Example 8(c), Disodium Salt of the Gadolinium Complex of 3,6,9-Triaza-3,6,9-tris(carboxymethyl)-4-(4-ethoxybenzyl)undecanedioic Acid]
T1 relaxation [1]: 5.33 ± 0.13 mmol⁻¹ s⁻¹ | enhancement of the liver (rats [4]; after 90 minutes): marked enhancement of the liver | enhancement of the stomach (rats [4]): least | T1 relaxation [3]: 8.69 ± 0.53 mmol⁻¹ s⁻¹

CCCCOc1ccc(CC(CN(CCN(CC(=O)[O-])CC(=O)[O-])CC(=O)[O-])N(CC(=O)[O-])CC(=O)[O-])cc1.[Gd+3].[Na+].[Na+] (centres unmarked) [Example 9(c), Disodium Salt of the Gadolinium Complex of 3,6,9-Triaza-3,6,9-tris(carboxymethyl)-4-(4-butoxybenzyl)undecanedioic Acid]
T1 relaxation ([1]; unit printed without slash): 5.80±0.26 1mmol·sec | enhancement of the liver (rats [4]; after 60 minutes): marked enhancement of the liver | T1 relaxation ([3]; unit printed without slash): 14.20±0.98 1mmol·sec

O=C([O-])CN(CCN(CC(=O)[O-])CC(Cc1ccc(OCc2ccccc2)cc1)N(CC(=O)[O-])CC(=O)[O-])CC(=O)[O-].[Gd+3].[Na+].[Na+] (centres unmarked) [Example 10(c), Disodium Salt of the Gadolinium Complex of 3,6,9-Triaza-3,6,9-tris(carboxymethyl)-4-(4-benzyloxybenzyl)undecanedioic Acid]
T1 relaxation [1]: 5.81 ± 0.11 mmol⁻¹ s⁻¹ | enhancement of the liver (rats [4]; after 60 minutes): marked enhancement of the liver | visibility of the tumor (rats [4]; animal 3, osteogenic sarcoma implanted three weeks previously, 60 minutes): clearly visible | absorption of the contrast medium by the tumor (rats [4]; animal 3, osteogenic sarcoma, 60 minutes): not absorbed the contrast medium at all, or only to a lesser proportion | enhancement of the stomach (rats [4]): most strongly | T1 relaxation [3]: 16.35 ± 1.01 mmol⁻¹ s⁻¹

CNC[C@H](O)[C@@H](O)[C@H](O)[C@H](O)CO.CNC[C@H](O)[C@@H](O)[C@H](O)[C@H](O)CO.O=C([O-])CN(CCN(CC(=O)[O-])CC(=O)O)CCN(CC(=O)[O-])CC(=O)O.[Gd+3] [Magnevist, dimeglumine salt of Gd DTPA [gadolinium(III)complex of diethylenetriaminepentaacetic acid]]
enhancement of the liver (comparison) (rats [5]): cannot be observed

Gadolinium Complex of 3,6,9-Triaza-3,6,9-tris-(carboxymethyl)-4-(4-carboxymethoxybenzyl)-undecanedioic Acid [Example 6(c)]
T1 relaxation [1]: 5.00 ± 0.01 mmol⁻¹ s⁻¹ | T1 relaxation [3]: 7.10 ± 0.08 mmol⁻¹ s⁻¹

Gadolinium Complex of 3,6,9-Triaza-3,6,9-tris-(carboxymethyl)-4-[4-(4-methoxybenzyloxy)benzyl]-undecanedioic Acid [Example 3(c)]
T1 relaxation [1]: 4.23 ± 0.16 mmol⁻¹ s⁻¹ | T1 relaxation [3]: 6.99 ± 0.13 mmol⁻¹ s⁻¹

Gadolinium Complex of 3,6,9-Triaza-3,6,9-tris-(carboxymethyl)-4-benzyloxymethylundecanedioic Acid [Example 5(c)]
T1 relaxation [1]: 4.39 ± 0.12 mmol⁻¹ s⁻¹ | T1 relaxation [3]: 6.31 ± 0.15 mmol⁻¹ s⁻¹

Gadolinium Complex of 3,6,9-Triaza-3,6,9-tris-(carboxymethyl)-4-benzylundecanedioic Acid [Example 4(d)]
T1 relaxation [1]: 4.54 ± 0.13 mmol⁻¹ s⁻¹ | T1 relaxation [3]: 6.89 ± 0.17 mmol⁻¹ s⁻¹

Gadolinium Complex of 3,6,9-Triaza-3,6,9-tris-(carboxymethyl)-5-(4-methoxybenzyl)undecanedioic Acid [Example 2(c)]
T1 relaxation [1]: 4.17 ± 0.14 mmol⁻¹ s⁻¹ | T1 relaxation [3]: 6.61 ± 0.18 mmol⁻¹ s⁻¹
